Test results from patent US20240199555A1, “APPLICATIONS OF BIASED LIGANDS OF THE SEROTONIN 5-HT7 RECEPTOR FOR THE TREATMENT OF PAIN, MULTIPLE SCLEROSIS AND THE CONTROL OF THERMOREGULATION” (Centre National de la Recherche Scientifique, priority 2021, published 2024).

Legend:
mice [1] = assay: Tail immersion test (50° C.); assay type: in vivo
Procedure: (A) Experimental protocol summary used. (B) Mice were subcutaneously injected with two different doses of the 5-HT7 receptor agonist Serodolin, 1 mg/kg or 5 mg/kg and 10 min later their tail extremity was immersed in water heated to 50 degrees. […] The effect of injections (Serodolin or E55888) was evaluated at TO, 30 min and 60 min corresponding to 10, 40 and 70 min after compound injections. […] Their tail extremity was immersed in water heated to 50 degrees at TO (E) or 30 min later (F) corresponding to 10 and 40 min after agonist injections. […] Statistical analysis was done using Tukey's multiple comparison test.
Tail immersion test. Nociception was assessed with the tail immersion test, 10 min and 40 min after E55888 (5 mg/kg) or Serodolin (5 mg/kg) tail subcutaneous injections, in the water heated to 50° C. Vehicle (20% DMSO, 5% Tween 80 diluted in PBS solution) was used as a control group. These different groups were intraperitoneally injected (+) or not (−) with the 5-HT7R antagonist SB269960 (5 mg/kg) 10 min before the ligand injection. The tail withdrawal latency (s) was measured for each animal.

mice [2] = assay: CFA-induced mechanical hypersensitivity, Von Frey filament test; assay type: in vivo; conditions: 5 mg/kg, s.c.
Procedure: Mechanical hypersensitivity was evaluated after CFA intraplantar injection by using the Von Frey test. […] Mechanical hypersensitivity was performed 24 hrs later (pre-treatment) CFA intraplantar injection into the left hind paw (ipsilateral paw). […] The ligand effects (E55888 or Serodolin) were evaluated 30 min and 24 hrs after in the ipsilateral paw. Data are means±SEM of values obtained in 2 independent experiments (n=8 to 10 per group). ****p<0.0001 ***p<0.001 **p<0.01 *p<0.05. Statistical analysis was done using Kruskal Wallis test.
Von Frey filament test. Before inducing peripheral inflammation, each animal was tested on the left hind paw with Von Frey Filament to determine its basal sensibility level. Then, peripheral inflammation was induced by intraplantar injection of Complete Freund's Adjuvant (CFA-10 μL) (F5881, Sigma) in the left hind paw (ipsilateral paw) and mechanical allodynia was measure (pre-treatment). Mice were divided into two groups, one with E55888 (5 mg/kg) and the other with Serodolin (5 mg/kg) subcutaneous injections in the ipsilateral paw. Both in absence (−) or in presence (+) of the 5-HT7R antagonist SB269960 (5 mg/kg), intraperitoneally, 20 min before the agonist injections (8-10 mice per group).
The inventors wanted to evaluate the effect of Serodolin on mechanical hypersensitivity in comparison with E-55888 after CFA injection.

mouse = assay: Effect on body temperature; assay type: in vivo; conditions: intravenous
Source text: FIG. 13: Evaluation of the effect of Serodolin on body temperature.
FIG. 17: Evaluation of the effect of MOA51 on body temperature. Results expressed in ° C.
The time course of the effect of Serodolin on the body temperature has been evaluated in the mouse following intravenous administration.

[3] = Pharmacokinetic study in plasma and brain; assay type: in vivo, C57BL/6 mice; conditions: 5 mg/kg, subcutaneous
Procedure: FIG. 20: Pharmacokinetic study of E55888 and Serodolin. Concentration-time profile of E55888 (reference agonist) and Serodolin in plasma (A) and brain (B) following subcutaneous injection of a unique dose 5 mg/kg of each compound in C57BL/6 mice. Data represent the mean concentration±SEM of n=4 each time point.
The pharmacokinetic study was undertaken to evaluate and compare the quantity of Serodolin and E55888 in plasma and brain samples from C57BL/6 mice (Janvier, Le Genest France) at several time points. Seven weeks old C57BL/6 mice (n=4 animals per group) received by subcutaneous injection a unique dose (5 mg/kg) of Serodolin or E55888 (U103013S, Achemblock). Control group received vehicle (solution of 20% DMSO and 5% Tween 80 diluted in NaCl). […] Blank vehicle mouse brains homogenates and plasma were used to established standard curves of Serodolin or E55888. […] Study samples, brains homogenates and plasma, were prepared for protein precipitation by adding 85 μL of acetonitrile+5-CT to 20 μL of samples. LC-HRMS analysis for PK studies were performed on a maXis Q-TOF mass spectrometer (Bruker, Bremen, Germany) coupled to an U3000 RSLC UHPLC system (Dionex, Germering, Germany). Separation was obtained using an Acquity UPLC BEH C18 column (2.1×50 mm; 1.7 μm) (Waters, Saint-Quentin-en-Yvelines, France) thermostated at 40° C. with a gradient of water (solvent A) and acetonitrile (solvent B), both acidified with 0.1% formic acid at 500 μL/min. […] The samples were randomized prior analysis; 1.25 μL were injected for plasma and 8 μL for brains. […] Area were integrated from extracted ion chromatograms (EIC) of [M+H]+ ions using QuantAnalysis 4.4 software (Bruker) with a tolerance of ±0.005 u.
The pharmacokinetics profile of both compounds were evaluated. The inventors used liquid chromatography tandem mass spectrometry (UPLC-MS/MS) method to perform PK study and measure Serodolin vs E55888 levels in vivo.

O=c1[nH]c2ccccc2n1CN1CCN(c2ccc(F)cc2)CC1 [Serodolin]
duration of effect (mice [1]; 5 mg/kg): > 70 min | tail-immersion latencies (mice [1]; 1 and 5 mg/kg, s.c.): significant dose-dependent increase in the tail-immersion latencies | anti-nociceptive effect in 5-HT7R KO mice (mice [1]; 5-HT7R KO mice, subcutaneous): did not exert any anti-nociceptive effect | onset of effect post administration (mice [1]; s.c.): ≤ 10 min | CFA-induced mechanical hypersensitivity, 30 minutes after administration (mice [2]; 30 minutes): Significantly decreased paw withdrawals thresholds (anti-allodynia) | anti-allodynic effect 24 later (mice [2]; 24 hrs): still significant | decrease in body temperature, Emax (mouse; 1 mg/kg, at 30 min): −2.9 °C | decrease in body temperature, Emax (mouse; 3 mg/kg, at 30 min): −3.6 °C | decrease in body temperature, Emax (mouse; 10 mg/kg, at 60 min): −7.9 °C | passage of the brain blood barrier [3]: ability to pass the brain blood barrier | time of maximum of detection ([3]; both in plasma and brain): 15 to 30 min | maximum of detection in brain ([3]; brain): 0.4 ± 0.8 µg/mL | maximum of detection in plasma ([3]; plasma): 2.9 ± 0.8 µg/mL | time after which eliminated / undetectable ([3]; plasma and brain): 240 min
